Reference: PubChem BioAssay AID2060887 (Molecular Pharmacology Branch, DTP, NCI, 2025)
“And” between values parts separate entries of the source, which are not always exact repeats. Equal values may be shown once.

System: 782815-120-R-J1-PDC complex spheroid viability
Test: Anticancer human tumor 782815-120-R-J1-PDC patient-derived colon adenocarcinoma cell line growth inhibition [RAS]
Settings: for viability, T/C: stronger effect = lower value
Procedure, shortened: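 Tumour cells grown as complex spheroids with HUVEC endothelial cells and mesenchymal stem cells, treated with RAS pathway inhibitor combinations. Each agent spans half-log steps from near clinical Cmax, or 10 microM where Cmax is unknown.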
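Also: spheroids exposed to compounds for 7 days before reading.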
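For viability, T/C in this document: 100% = DMSO vehicle control viability.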

CC(Nc1ccc2c(c1)OCCn1cc(N3C(=O)OCC3C(F)F)nc1-2)C(N)=O (centres undefined) + CCn1c(-c2cc(N3CCN(C)CC3)cnc2C(C)OC)c2c3cc(ccc31)-c1csc(n1)CC(NC(=O)C1CC1C)C(=O)N1CCCC(N1)C(=O)OCC(C)(C)C2 was tested, and the IC50 (curve of first compound, second compound 0.000949 µM) was > 10000 nM, the IC50 (curve of first compound, second compound 0.003 µM) was 195 nM and the IC50 (curve of first compound, second compound 0.00949 µM) was < 31.6 nM. The IC50 (curve of first compound, second compound 0.03 µM) was < 31.6 nM, the IC50 (curve of first compound, second compound 0.0949 µM) was < 31.6 nM and the IC50 (curve of first compound, second compound 0.3 µM) was < 31.6 nM. For the same compound, the viability, T/C (second compound 0.000949 µM, first compound 0.0316 µM) was 75.1%, the viability, T/C (second compound 0.000949 µM, first compound 0.1 µM) was 73.5% and the viability, T/C (second compound 0.000949 µM, first compound 0.316 µM) was 76%. The viability, T/C (second compound 0.000949 µM, first compound 1 µM) was 62.9%, the viability, T/C (second compound 0.000949 µM, first compound 3.16 µM) was 73.8% and the viability, T/C (second compound 0.000949 µM, first compound 10 µM) was 78.5%. It also gave a viability, T/C (second compound 0.003 µM, first compound 0.0316 µM) of 53.1%, a viability, T/C (second compound 0.003 µM, first compound 0.1 µM) of 54.9% and a viability, T/C (second compound 0.003 µM, first compound 0.316 µM) of 46.4%. For the same compound, the viability, T/C (second compound 0.003 µM, first compound 1 µM) was 47.5%, the viability, T/C (second compound 0.003 µM, first compound 3.16 µM) was 45.1% and the viability, T/C (second compound 0.003 µM, first compound 10 µM) was 51.8%. It also gave a viability, T/C (second compound 0.00949 µM, first compound 0.0316 µM) of 29.8%, a viability, T/C (second compound 0.00949 µM, first compound 0.1 µM) of 31.2% and a viability, T/C (second compound 0.00949 µM, first compound 0.316 µM) of 27.9%. For the same compound, the viability, T/C (second compound 0.00949 µM, first compound 1 µM) was 24.9%, the viability, T/C (second compound 0.00949 µM, first compound 3.16 µM) was 24.1% and the viability, T/C (second compound 0.00949 µM, first compound 10 µM) was 25.3%. The viability, T/C (second compound 0.03 µM, first compound 0.0316 µM) was 19.8%, the viability, T/C (second compound 0.03 µM, first compound 0.1 µM) was 18.4% and the viability, T/C (second compound 0.03 µM, first compound 0.316 µM) was 15%. It also gave a viability, T/C (second compound 0.03 µM, first compound 1 µM) of 15.6%, a viability, T/C (second compound 0.03 µM, first compound 3.16 µM) of 16.2% and a viability, T/C (second compound 0.03 µM, first compound 10 µM) of 13.1%. For the same compound, the viability, T/C (second compound 0.0949 µM, first compound 0.0316 µM) was 15.4%, the viability, T/C (second compound 0.0949 µM, first compound 0.1 µM) was 15.1% and the viability, T/C (second compound 0.0949 µM, first compound 0.316 µM) was 11.4%. It also gave a viability, T/C (second compound 0.0949 µM, first compound 1 µM) of 11.5%, a viability, T/C (second compound 0.0949 µM, first compound 3.16 µM) of 13.5% and a viability, T/C (second compound 0.0949 µM, first compound 10 µM) of 11.9%. It also gave a viability, T/C (second compound 0.3 µM, first compound 0.0316 µM) of 15.6%, a viability, T/C (second compound 0.3 µM, first compound 0.1 µM) of 13% and a viability, T/C (second compound 0.3 µM, first compound 0.316 µM) of 10.1%. For the same compound, the viability, T/C (second compound 0.3 µM, first compound 1 µM) was 11.8%, the viability, T/C (second compound 0.3 µM, first compound 3.16 µM) was 11.9% and the viability, T/C (second compound 0.3 µM, first compound 10 µM) was 11.8%.

C=CC(=O)Nc1cc(Nc2nccc(-c3cn(C)c4ccccc34)n2)c(OC)cc1N(C)CCN(C)C was tested, and the viability, T/C (compound 0.00316 µM) was 93.8% and 93.6% (2×) and 98%, the viability, T/C (compound 0.01 µM) was 99.9% [middle of 4 runs] and the viability, T/C (compound 0.0316 µM) was 96.3% [middle of 4 runs]. The viability, T/C (compound 0.1 µM) was 94.3% [middle of 4 runs], the viability, T/C (compound 0.316 µM) was 94.1% [middle of 4 runs] and the viability, T/C (compound 1 µM) was 91.1% [middle of 4 runs]. The IC50 (curve of compound) was > 1000 nM.
